Results as given in ChEMBL document CHEMBL1156236, “Trypanoside, anti-tuberculosis, leishmanicidal, and cytotoxic activities of tetrahydrobenzothienopyrimidines” (Bioorg Med Chem, 2010).

Columns and labels:
[1] = test system: Vero; experiment: Cytotoxicity against african green monkey Vero cells after 72 hrs by MTS assay; settings: Chlorocebus sabaeus, Vero, 72 h
[2] = Cytotoxicity against BALB/c mouse macrophages after 48 hrs by trypan blue dye exclusion method; assay type: cell-based; settings: Macrophage
[3] = Selectivity index, ratio of IC50 for BALB/c mouse macrophages to IC50 for Leishmania amazonensis MHOM/BR/76/LTB-012
[4] = test system: MCF7; experiment: Cytotoxicity against human MCF7 cells; assay type: functional
[5] = test system: CCRF-CEM; experiment: Cytotoxicity against human CCRF-CEM cells; assay type: functional
[6] = test system: HL-60(TB); experiment: Cytotoxicity against human HL-60(TB) cells; assay type: functional
[7] = Cytotoxicity against human […] cells; assay type: functional
[8] = test system: HOP-62; experiment: Cytotoxicity against human HOP62 cells; assay type: functional
[9] = test system: NCI-H322M; experiment: Cytotoxicity against human NCI-H322M cells; assay type: functional
[10] = test system: NCI-H522; experiment: Cytotoxicity against human NCI-H522 cells; assay type: functional
[11] = test system: COLO 205; experiment: Cytotoxicity against human COLO205 cells; assay type: functional
[12] = test system: HCC 2998; experiment: Cytotoxicity against human HCC2998 cells; assay type: functional
[13] = test system: KM12; experiment: Cytotoxicity against human KM12 cells; assay type: functional
[14] = test system: SF-268; experiment: Cytotoxicity against human SF268 cells; assay type: functional
[15] = test system: SF-539; experiment: Cytotoxicity against human SF539 cells; assay type: functional
[16] = test system: SNB-75; experiment: Cytotoxicity against human SNB75 cells; assay type: functional
[17] = test system: U-251; experiment: Cytotoxicity against human U251 cells; assay type: functional
[18] = test system: LOX IMVI; experiment: Cytotoxicity against human LOXIMVI cells; assay type: functional
[19] = test system: SK-MEL-28; experiment: Cytotoxicity against human SK-MEL-28 cells; assay type: functional
[20] = test system: UACC-62; experiment: Cytotoxicity against human UACC62 cells; assay type: functional
[21] = test system: IGROV-1; experiment: Cytotoxicity against human IGROV1 cells; assay type: functional
[22] = test system: OVCAR-4; experiment: Cytotoxicity against human OVCAR4 cells; assay type: functional
[23] = test system: NCI/ADR-RES; experiment: Cytotoxicity against human NCI/ADR-RES cells; assay type: functional
[24] = test system: SK-OV-3; experiment: Cytotoxicity against human SKOV3 cells; assay type: functional
[25] = test system: MDA-MB-231; experiment: Cytotoxicity against human MDA-MB-231 cells; assay type: functional
[26] = Cytotoxicity against human Hs 578T cells; assay type: functional
[27] = test system: BT-549; experiment: Cytotoxicity against human BT549 cells; assay type: functional
[28] = read-out: LC50 (the source's name)

C(=N\Nc1ncnc2sc3c(c12)CCCC3)/c1ccccn1
IC50 [1]: < 0.3 µM
IC50 [2]: 6.5 µM
Ratio IC50 [3]: 13
GI50 [4]: 0.09 µM
TGI [4]: 15.3 µM
CC50 [4, 28]: 80 µM
GI50 [5]: 0.242 µM
TGI [5]: 0.769 µM
CC50 [5, 28]: > 100 µM
GI50 [6]: 0.12 µM
TGI [6]: 0.407 µM
CC50 [6, 28]: > 100 µM
GI50 [7]: 0.35 µM
TGI [7]: 12.5 µM
CC50 [7, 28]: > 100 µM
GI50 [8]: 0.395 µM
TGI [8]: 17.7 µM
CC50 [8, 28]: > 100 µM
GI50 [9]: 0.216 µM
TGI [9]: 35 µM
CC50 [9, 28]: > 100 µM
GI50 [10]: 0.419 µM
TGI [10]: 23.2 µM
CC50 [10, 28]: > 100 µM
GI50 [11]: 0.315 µM
TGI [11]: 14.7 µM
CC50 [11, 28]: 54.5 µM
GI50 [12]: 10 µM
TGI [12]: 22.9 µM
CC50 [12, 28]: 52.6 µM
GI50 [13]: 0.515 µM
TGI [13]: 12.7 µM
CC50 [13, 28]: 38 µM
GI50 [14]: 0.356 µM
TGI [14]: 15.1 µM
CC50 [14, 28]: 83 µM
GI50 [15]: 0.391 µM
TGI [15]: 0.384 µM
CC50 [15, 28]: 29.2 µM
GI50 [16]: 0.585 µM
TGI [16]: 14.7 µM
CC50 [16, 28]: 49.3 µM
GI50 [17]: 0.369 µM
TGI [17]: 12.1 µM
CC50 [17, 28]: 34.8 µM
GI50 [18]: 0.256 µM
CC50 [18, 28]: 34.8 µM
GI50 [19]: 0.422 µM
TGI [19]: 16.7 µM
CC50 [19, 28]: 54.6 µM
GI50 [20]: 0.379 µM
TGI [20]: 6.54 µM
CC50 [20, 28]: 48.4 µM
GI50 [21]: 0.45 µM
TGI [21]: 28.9 µM
CC50 [21, 28]: > 100 µM
GI50 [22]: 0.431 µM
TGI [22]: 26.3 µM
CC50 [22, 28]: > 0.1 µM
GI50 [23]: 0.427 µM
TGI [23]: 58.1 µM
CC50 [23, 28]: > 0.1 µM
GI50 [24]: 0.41 µM
TGI [24]: 29.2 µM
CC50 [24, 28]: > 0.1 µM
GI50 [25]: 0.603 µM
TGI [25]: 29.7 µM
CC50 [25, 28]: > 100 µM
GI50 [26]: 0.748 µM
TGI [26]: 23.9 µM
CC50 [26, 28]: > 100 µM
GI50 [27]: 0.394 µM
TGI [27]: 28.7 µM
CC50 [27, 28]: > 100 µM
